Assay results reported in patent publication US7183061B2, “Method of expressing Heliothis ecdysone receptor fusion protein” (Syngenta Limited, priority 1996, dated 2007).

System: glucocorticoid receptor
Assay: Maize protoplast GUS reporter assay with pMF6HR1PAT (GR) and p221.9GRE6
Type: cell-based, Human
Settings: maize protoplasts, reporter plus effector, concentration not given
Source text: The glucocorticoid receptor DNA for the Maize transient expression construct was produced via the polymerase chain reaction (PCR) of Human Fibrosarcoma cDNA (HT1080 cell line, ATCC#CC1121) library (Clontech see Hollenberg et al., 1985). The PCR approach taken was to amplify the 2.7 kb fragment encoding the glucocorticoid receptor in two segments. The first segment entails the N-terminal end up to and including the DNA binding domain while the second fragment begins with the hinge region (amino acid 500) thought to the end of the reading frame. Thus, the PCR primer for the N-terminal end segment was designed to contain an EcoRI site and the Kozak consensus sequence for translation initiation: GREcoRI 5′ […] 3′ (SEQ ID NO: 32).
The 2.7 kb EcoRI fragment was subcloned into the vector pMF6PAT EcoRI resulting in pMF6HGIPAT (FIG. 10).
Two reporter plasmids were made by inserting the into p221.9 or p221.10 BamHI/HindIII vectors two pairs or oligonucleotides containing six copies of the glucocorticoid response element (GRE). […]
Protoplasts were isolated from a maize suspension culture derived from BE70×A188 embryogenic callus material, which was maintained by subculturing twice weekly in MS0.5mod. […] The pellet was resuspended in wash buffer and the protoplasts were counted. […] Protein concentrations of tissue homogenates were determined by the Bio-Rad protein assay (Bradford, 1976). […]

## CC(C)CC[C@@H](O)[C@](C)(O)[C@H]1CC[C@@]2(O)C3=CC(=O)[C@]4(O)C[C@@H](O)[C@@H](O)C[C@]4(C)[C@H]3[C@H](O)C[C@]12C [Muristerone A]
  induced levels of expression: does not lead to induced levels of expression
